For assay [1], the system named is Anabaena PCC7120. Description: Growth of cyanobacterium determined by chlorophyll concentration. In kind it is cell-based. On the procedure: Cyanobacteria were grown in BG11 medium under 30 μmol photons m^−2 sec^−1 at 30° C. in the presence of the indicated concentration of Ornidazole.
The cyanobacterium Anabaena PCC7120 was grown in BG-11 medium as was previously described (Marcus Y, et al., 2005. J Bacteriol 187, 4222-4228). The green eukaryotic alga Dunaliella salina was grown on a medium described by Ben-Amotz and Avron (Ben-Amotz A and Avron M 1983. Plant Physiol 72, 593-597), under 20 μmol photons m^−2 sec^−1 at 30° C. The aquatic plant Lemna was collected from an open pond at the Botanical garden of Tel Aviv University. Seedlings of Avena sterilis were grown in pots in a greenhouse. The marine diatom Phaeodactylum tricornutum was grown as described in Haimovich-Dayan et al. (Haimovich-Dayan M. et al. 2012. New Phytol 195:177-185).
The effect of Ornidazole on the growth of the cyanobacterium Anabaena PCC7120 was examined by determining the chlorophyll concentration. The algae were grown in BG-11 medium as described herein above. […] One mM Ornidazole in the medium caused a decrease in chlorophyll concentration to 1% of its original concentration after three days of such incubation (FIG. 1).

For assay [2], the system named is Lemna. Description: PAM fluorescence parameters of aquatic plant. In kind it is in vivo. As to conditions: 1 mM Ornidazole in growth medium; actinic light 210 μmol photons×m^−2×sec^−1. The procedure: The fluorescence under dim (3 μmol photons×m^−2×sec^−1) and saturating (2000 μmol photons×m^−2×sec^−1, 0.8 sec) flash light (Fo and Fmax, respectively) of pre-darkened plants was determined in the presence or absence of 1 mM Ornidazole in the growth medium, using a PAM fluorimeter. Quantum yield and non-photochemical quenching (qN) were determined with saturating flashes under actinic light (210 μmol photons×m^−2×sec^−1).
The rate of net O2 exchange was determined using a Clark-type O2 electrode (Rank Brothers Ltd, UK). Fluorescent measurements (quantum yield, photochemical and non photochemical quenching) were determined using a modulated fluorometer (PAM, Walz, Germany) as described by Schreiber et al. (Schreiber U et al., 1986. fluorometer. Photosynth Res 10, 51-62) and Snir et al. (Snir A, et al., 2006. Photosynth Res 90, 233-242).
The effect of Ornidazole on photosynthesis was further examined in the aquatic plant Lemna. Lemna plants were collected from a pond at the Botanical garden of Tel Aviv University and kept in the pond water as a growth medium. The fluorescence under dim (3 μmol photons m^−2 sec^−1) and saturating (2000 μmol photons m^−2 sec^−1, 0.8 sec) flash light (Fo and Fmax, respectively) of pre-darkened plants was determined in the presence or absence of 1 mM Ornidazole in the growth medium, using a PAM fluorimeter (H. Walz, Germany). […]

The target of assay [3] is glyceraldehyde-3-phosphate dehydrogenase (GAPDH) (Homo sapiens, UniProt P04406). As to conditions: glycolytic GAPDH; cited from earlier work.

Structures are written as SMILES.

Sequence of glyceraldehyde-3-phosphate dehydrogenase (GAPDH) (P04406 whole entry, species assumed): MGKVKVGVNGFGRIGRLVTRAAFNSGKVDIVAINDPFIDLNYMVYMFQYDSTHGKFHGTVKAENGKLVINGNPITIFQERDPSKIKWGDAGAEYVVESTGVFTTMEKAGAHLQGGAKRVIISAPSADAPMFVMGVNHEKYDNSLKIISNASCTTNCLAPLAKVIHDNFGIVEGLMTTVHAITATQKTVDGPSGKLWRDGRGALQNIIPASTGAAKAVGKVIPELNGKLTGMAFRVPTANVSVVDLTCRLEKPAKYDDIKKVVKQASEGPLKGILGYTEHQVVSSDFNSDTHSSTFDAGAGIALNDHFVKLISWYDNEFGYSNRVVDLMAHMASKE

Regarding `Cc1ncc([N+](=O)[O-])n1CC(O)CCl` (centres unmarked) [Ornidazole, 1-chloro-3-(2-methyl-5-nitro-1H-imidazol-1-yl)propan-2-ol], the effect on growth entry in assay [1] (250 μM Ornidazole in BG-11 medium) was “stopped the growth and stimulated chlorosis”. The “chlorophyll concentration relative to original concentration” value in assay [1] (1 mM Ornidazole in the medium, after three days) was 1%. Besides, in assay [2], the non-photochemical quenching entry is given as “increased” and the photosynthetic quantum yield result was “decreased significantly”. Also, in assay [3], the “inhibition of enzyme activity” value is recorded as “inhibits the activity”.
